Data on two molecules can be found in patent US8969345B2, “Dibenzooxepin derivative” (Kyowa Hakko Kirin Co., Ltd., priority 2011, dated 2015).

The target in data set [1] is T1, GAL4-PPAR γ chimeric nuclear receptor (human PPAR γ ligand binding domain) (Homo sapiens, UniProt P37231).
T1 construct: expressed in transfected cells; host or cells: HEK293EBNA cells, transient transfection with SuperFect
T1 sequence (P37231 174-475 isoform P37231-2): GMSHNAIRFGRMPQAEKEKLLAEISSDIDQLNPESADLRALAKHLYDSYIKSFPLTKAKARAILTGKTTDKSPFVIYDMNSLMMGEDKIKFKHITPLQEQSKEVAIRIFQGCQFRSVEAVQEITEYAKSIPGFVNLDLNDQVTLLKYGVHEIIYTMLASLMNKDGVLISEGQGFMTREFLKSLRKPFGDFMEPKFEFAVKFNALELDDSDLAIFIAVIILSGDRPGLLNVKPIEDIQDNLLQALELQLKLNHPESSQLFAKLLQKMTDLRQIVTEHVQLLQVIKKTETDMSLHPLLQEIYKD
The data set can be described thus: PPAR γ transactivation assay by transient gene transfer (GAL4-PPAR γ chimeric receptor, luciferase reporter, HEK293EBNA cells). Format: cell-based. The settings on record: concentration showing 50% of efficacy (maximum activity rate relative to pioglitazone = 100%), 24 hr. As to the method:
The agonist activity of the test compound to PPAR γ was determined by a transactivation assay method using a chimeric nuclear receptor of a DNA binding region of a yeast transcription factor GAL4 and a PPAR γ ligand binding region. Specifically, the PPAR γ agonist activity of the test compound was evaluated by the following method based on the method of Lehmann et al. (J Biol. Chem., 1995, vol. 270, page 12953).
HEK293EBNA cells cultured in Dulbecco's Modified Eagle medium (Invitrogen) containing 10 v/v % fetal bovine serum (Invitrogen) were used. 30 mL of the above-mentioned cells (density: 1×10^5 cells/mL) were inoculated in a […] (Iwaki Glass), and cultured overnight. Using SuperFect Transfection Reagent (QIAGEN), a plasmid expressing a GAL4-PPAR γ chimeric nuclear receptor fusing 174-475 amino acids, which are human PPAR γ ligand binding domain, and 1-147 amino acids, which are GAL4 DNA binding domain, and a reporter plasmid expressing a GAL4 responsive luciferase were transiently introduced into the cells at a proportion of 4:1. After 5 hr from transfection, the cells were detached from the culture dish, and the detached cells (density: 2×10^4 cells/mL) were inoculated by 100 μL in each well of a 96 well white plate (SUMITOMO BAKELITE), and cultured overnight. The medium was removed, the test compound diluted in various concentrations with serum-free Dulbecco's Modified Eagle medium was added by 100 μL, and the mixture was reacted under a 5% carbon dioxide gas stream (5% CO2) at 37° C. for 24 hr. On the other hand, as a positive control, 10 μmol/L of pioglitazone (100 μL) was added, and the mixture was reacted under a 5% carbon dioxide gas stream (5% CO2) at 37° C. for 24 hr. As a substrate of luciferase, 100 μL of Steady-Glo (Promega) was added to each well and the mixture was thoroughly stirred. Immediately thereafter, the chemical luminescence due to luciferase was measured using TopCount NTX (Packard).
The agonist activity (activity rate (%)) of the test compound to PPAR γ was calculated according to the following formula, as a relative activity when the agonist activity on addition of pioglitazone ([…]) was 100%.

Data set [2] is described as follows: Metabolic stability evaluation in human liver microsome. The settings on record: liver microsomes, pH 7.4; human liver microsome 0.2 mg/mL protein, test compound 1 μmol/L, β-NADPH, 37° C., 30 min; average of two samples; read-out: hCLint (converted). The class given is in vitro ADME. The protocol: Human liver microsome (pool of 50 donors) was purchased from XenoTech. A reaction mixture containing phosphate buffer (100 mmol/L, pH 7.4), ethylenediamine tetraacetic acid (0.1 mmol/L), magnesium chloride (6 mmol/L), human liver microsome (0.2 mg/mL protein) and test compound (1 μmol/L) was prepared. The reaction mixture was preincubated at 37° C. for 5 min, β-NADPH (1 mmol/L) was added and the mixture was incubated at 37° C. for 30 min. The protein was removed with acetonitrile from the sample after the reaction and the sample was measured by LC-MS/MS. The ratio of the organic solvent in the reaction mixture was set to about 0.5%, and the reaction was performed in 2 samples.
The elimination rate constant (ke) was calculated from the linear regression of the logarithm plot of the residual ratio of the test compound and at 30 min after the reaction, and the liver inherent clearance (Cint) was calculated by the following formula.
[formula] ke: elimination rate constant (1/h) a: concentration (mg/mL) of liver microsome in the reaction mixture b: liver microsome amount per liver unit weight (32.3 mg/g liver) c: liver weight per unit body weight (25.7 g liver/kg body weight) Each test compound was tested in two samples, and the average thereof was calculated.
A general note: Microsomes from liver hold many membrane-bound enzymes, among them those of drug oxidation.

Structures are written as SMILES.

In general, EC50 refers to the concentration that produces a half-maximal response. Low readings indicate a more potent agent, high ones a less potent agent. Consider `C/C(=C1/c2ccc(Cc3c(C#N)nc4cc(F)ccn34)cc2COc2cc(F)ccc21)c1noc(=O)[nH]1` [Compound 14i, (E)-3-(1-{8-[(2-cyano-7-fluoroimidazo[1,2-a]pyridin-3-yl)methyl]-3-fluorodibenzo[b,e]oxepin-11(6H)-ylidene}ethyl)-1,2,4-oxadiazol-5(4H)-one], for which a half-maximal effect in data set [1] (EC50) was put at 239 nM. For the same molecule, the CLint scaled at 1 μmol/L in data set [2] is 127 mL/min/kg.

As to `C/C(=C1/c2ccc(Cc3c(C4CCOC4)nc4cc(F)ccn34)cc2COc2cc(F)ccc21)c1noc(=O)[nH]1` (stereo not shown) [Compound 14j, (E)-3-(1-{8-[(7-fluoro-2-(tetrahydrofuran-3-yl)imidazo[1,2-a]pyridin-3-yl)methyl]-3-fluorodibenzo[b,e]oxepin-11(6H)-ylidene}ethyl)-1,2,4-oxadiazol-5(4H)-one], a half-maximal response in data set [1] (EC50) required 83 nM. For the same molecule, the CLint scaled at 1 μmol/L in data set [2] was 11.3 mL/min/kg.
